For 10 compounds, IC50 and Ki results are on record in patent publication US9732094B2, “Arylquinazolines” (Merck Patent GmbH, priority 2013, dated 2017).

Read-outs that look alike come from different tables or passages of the source. Some results are limits rather than exact numbers.

As a reminder, the IC50 is the midpoint of a concentration-inhibition curve. Broadly, the Ki is a dissociation constant, usually derived from enzyme kinetics or from competition with a known ligand.

Data set [1] deals with DNA-PK phosphorylation at serine 2056 (Homo sapiens (Human), UniProt P78527). In words: DNA-PK phosphorylation at serine 2056 (cellular), bleomycin-treated HCT116 cells, ELISA. The format is cell-based. The conditions noted are these: read-out: IC50 pDNA-PK. On the procedure: HCT116 cells were cultivated at 37° C. and 10% CO2 in MEM alpha medium with 10% of foetal calf serum and 2 mM glutamine. The cells were detached from the base of the culture vessels with the aid of trypsin/EDTA, centrifuged off in centrifuge tubes, taken up in fresh medium, and the cell density was determined. 100,000 cells were sown in 1 ml of culture medium per cavity of a 24-well cell culture plate and cultivated overnight. Next day, 10 μM bleomycin (DNA intercalator and inductor of DNA double-strand breaks) and test substances in fresh culture medium were added to the cells, and these were cultivated for a further six hours. […] The 96-well ELISA plates were subsequently treated with a detection antibody (Abcam ab79444: total DNA-PK) and a streptavidin-HRP conjugate. The development of the enzymatic reaction was carried out with the aid of a chemiluminescent reagent, the chemiluminescence was measured with the aid of a Mithras LB940. The signals with the phospho-DNA-PK-specific antibody were standardised to the signal with the antibody against the total protein DNA-PKc. […] The DMSO control was used as blank.
Background: In an ELISA, binding on a coated surface is turned into a signal by an enzyme label.

In data set [2] the target is Kv11.1 (hERG) (Homo sapiens (Human), UniProt Q12809). In words: Kv11.1 (hERG) ion channel activity (patch clamp assay), HEK293 cells transfected with hERG gene.
Data set [3] concerns the target DNA-PK (Homo sapiens (Human), UniProt P78527). In words: DNA-PK assay (biochemical), flashplate 33P-ATP kinase assay. On the procedure: A) DNA-PK Assay (Biochemical)
The kinase assay was carried out in streptavidin-coated […] microtitre flashplates. […] The reaction was stopped using 50 μl/well of 200 mM EDTA. After incubation for a further 30 min at room temperature, the liquid was removed. Each well was washed three times with 100 μl of 0.9% saline solution. A nonspecific reaction (blank value) was determined using 10 μM of an innate kinase inhibitor. The radioactivity measurement was carried out using a TopCount. IC50 values were calculated in RS1.

Setting [4] is: cellular DNA-PK phosphorylation at serine 2056, HCT116.
[5] abbreviates: read-out: Ki [Kv1.11 hERG], hERG patch clamp assay (cells without asterisk).
Setting [6] is: cellular, HCT116 cells, 10 μM bleomycin, six hours.
Setting [7] is: read-out: Ki [Kv1.11 hERG], patch clamp, HEK293 transfected with hERG gene.
The mark [8] stands for this setting: Ki [Kv1.11 hERG], patch clamp, HEK293 transfected with hERG gene.

Chain of Kv11.1 (hERG) (Q12809 whole entry): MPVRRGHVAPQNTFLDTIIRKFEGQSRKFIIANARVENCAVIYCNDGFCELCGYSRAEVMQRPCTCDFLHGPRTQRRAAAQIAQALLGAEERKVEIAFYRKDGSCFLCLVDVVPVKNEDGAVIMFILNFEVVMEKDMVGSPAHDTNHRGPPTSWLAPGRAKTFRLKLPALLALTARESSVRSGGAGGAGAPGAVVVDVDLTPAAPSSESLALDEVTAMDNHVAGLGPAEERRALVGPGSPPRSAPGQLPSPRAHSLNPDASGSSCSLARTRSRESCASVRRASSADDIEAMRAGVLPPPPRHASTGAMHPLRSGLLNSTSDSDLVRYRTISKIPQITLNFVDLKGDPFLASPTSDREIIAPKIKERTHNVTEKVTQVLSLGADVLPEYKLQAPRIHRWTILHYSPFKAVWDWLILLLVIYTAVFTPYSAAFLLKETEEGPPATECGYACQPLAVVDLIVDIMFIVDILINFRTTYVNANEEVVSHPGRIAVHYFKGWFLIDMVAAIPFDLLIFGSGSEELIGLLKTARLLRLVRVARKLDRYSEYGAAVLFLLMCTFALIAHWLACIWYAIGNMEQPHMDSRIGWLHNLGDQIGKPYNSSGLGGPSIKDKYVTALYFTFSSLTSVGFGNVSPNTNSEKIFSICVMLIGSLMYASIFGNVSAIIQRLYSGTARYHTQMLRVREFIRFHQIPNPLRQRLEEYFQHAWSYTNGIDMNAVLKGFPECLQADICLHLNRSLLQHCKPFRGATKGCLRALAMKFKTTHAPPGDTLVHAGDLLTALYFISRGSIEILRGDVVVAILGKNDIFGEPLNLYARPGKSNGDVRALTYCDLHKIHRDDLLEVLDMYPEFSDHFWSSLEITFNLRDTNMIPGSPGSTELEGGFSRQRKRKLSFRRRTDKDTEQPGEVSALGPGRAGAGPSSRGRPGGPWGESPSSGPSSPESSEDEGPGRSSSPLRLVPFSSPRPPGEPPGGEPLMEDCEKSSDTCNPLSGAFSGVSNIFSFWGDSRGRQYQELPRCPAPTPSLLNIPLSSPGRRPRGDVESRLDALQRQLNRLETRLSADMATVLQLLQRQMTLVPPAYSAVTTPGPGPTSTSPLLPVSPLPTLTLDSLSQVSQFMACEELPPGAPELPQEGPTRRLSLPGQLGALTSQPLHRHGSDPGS

With `Cn1cnc2c(C(O)c3cc(-c4ncnc5cc(N6CCOCC6)ccc45)c(F)cc3F)ncnc21` (stereo not drawn) [Example 421, [2.4-Difluoro-5-(7-morpholin-4-yl-quinazolin-4-yl)-phenyl]-(9-methyl-9H-purin-6-yl)-methanol], the IC50 lay in the range of 0.5 to 5 µM in data set [1] (setting [4]) and 0.007 to 0.03 µM in data set [3] (biochemical DNA-PK assay). Besides, the Ki in data set [2] (setting [5]) is over 25 µM.
Consider `OC(c1cc(-c2ncnc3cc(N4CCOCC4)ccc23)c(F)cc1F)c1nccnc1OC(F)F` (stereo not drawn) [Example 449, (3-Difluoromethoxy-pyrazin-2-yl)-[2,4-difluoro-5-(7-morpholin-4-yl-quinazolin-4-yl)-phenyl]methanol], for which the 50% inhibitory concentration (IC50) in data set [1] (setting [4]) was 0.5 to 5 µM; in data set [3] (biochemical DNA-PK assay), under 0.003 µM. Further, the Ki in data set [2] (setting [5]) is over 25 µM.
`CC(C#N)Oc1ccc(C(O)c2cc(-c3ncnc4cc(N5CCOCC5)ccc34)c(F)cc2Cl)nn1` (single isomer, unassigned) [Example 104, 2-(6-{[2-Chloro-4-fluoro-5-(7-morpholin-4-yl-quinazolin-4-yl)-phenyl]hydroxy-methyl}pyridazin-3-yloxy)propionitrile]: the IC50 in data set [1] (setting [6]) was in the range of 0.5 to 5 µM; in data set [3] (enzymatic, 5 μM ATP) it was 0.007 to 0.03 µM. In data set [2] (setting [7]), the Ki lay in the range of 15 to 25 µM.
For `Cc1cncnc1C(C(N)=O)c1cc(-c2ncnc3cc(N4CCOCC4)ccc23)ccc1Cl` (stereo not drawn) [Example 407, 2-[2-Chloro-5-(7-morpholin-4-yl-quinazolin-4-yl)-phenyl]-2-(5-methyl-pyrimidin-4-yl)-acetamide], the figures for the IC50 in data set [1] (setting [4]) and in data set [3] (biochemical DNA-PK assay) were 0.5 to 5 µM and under 0.003 µM, respectively. For the same compound, in data set [2] (setting [5]), the Ki lay in the range of 15 to 25 µM.
Turning to `Cc1cncnc1C(O)c1cc(-c2ncnc3cc(N4CCOCC4)ccc23)ccc1Cl` (stereo not drawn) [Example 417, [2-Chloro-5-(7-morpholin-4-yl-quinazolin-4-yl)-phenyl]-(5-methyl-pyrimidin-4-yl)-methanol], the values for the IC50 in data set [1] (setting [4]) and in data set [3] (biochemical DNA-PK assay) were 0.5 to 5 µM and 0.007 to 0.03 µM, respectively. Besides, the inhibition constant (Ki) in data set [2] (Ki [Kv1.11 hERG], hERG patch clamp assay (cells without asterisk)) fell in the range of 15 to 25 µM.
For `O=C(O)COc1ccc(C(O)c2cc(-c3ncnc4cc(N5CCOCC5)ccc34)c(F)cc2Cl)nn1` (stereo not drawn) [Example 113, (6-{[2-Chloro-4-fluoro-5-(7-morpholin-4-yl-quinazolin-4-yl)-phenyl]hydroxy-methyl}pyridazin-3-yl-oxy)acetic acid], the IC50 in data set [1] (setting [6]) lay within 10 to 30 µM; in data set [3] (enzymatic, 5 μM ATP) it was 0.003 to 0.007 µM. Moreover, in data set [2] (setting [7]), the Ki is over 25 µM.
On to `OC(c1ccc(OCC(F)(F)F)nn1)c1cc(-c2ncnc3cc(N4CCOCC4)ccc23)c(F)cc1Cl` (stereo not drawn) [Example 115, [2-Chloro-4-fluoro-5-(7-morpholin-4-yl-quinazolin-4-yl)-phenyl]-[6-(2,2,2-trifluoroethoxy)-pyridazin-3-yl]-methanol], for which the IC50 is 0.5 to 5 µM in data set [1] (setting [6]) and 0.003 to 0.007 µM in data set [3] (enzymatic, 5 μM ATP). Further, in data set [2] (setting [8]), the Ki was 10 to 15 µM.
Regarding `COc1ccc(C(O)c2ccc(F)c(-c3ncnc4cc(N5CCOCC5)cc(F)c34)c2)nn1` (stereo not drawn) [Example 260, [4-Fluoro-3-(5-fluoro-7-morpholin-4-yl-quinazolin-4-yl)-phenyl]-(6-methoxy-pyridazin-3-yl)-methanol], the results for the IC50 in data set [1] (setting [4]) and in data set [3] (biochemical DNA-PK assay) were under 0.5 µM and under 0.003 µM, respectively. Also, in data set [2] (setting [5]), the Ki is over 25 µM.
For `OC(c1ccc(F)c(-c2ncnc3cc(N4CCOCC4)ccc23)c1)c1nccnc1OC1COC1` (stereo not drawn) [Example 32, [4-fluoro-3-(7-morpholin-4-yl-quinazolin-4-yl)phenyl]-[3-(oxetan-3-yloxy)-pyrazin-2-yl]methanol], the IC50 in data set [1] (setting [6]) was 5 to 10 µM; in data set [3] (enzymatic, 5 μM ATP), 0.007 to 0.03 µM. For the same compound, the Ki in data set [2] (setting [8]) was 15 to 25 µM.
In the case of `NC(=O)C(c1cccnc1)c1cc(-c2ncnc3cc(N4CCOCC4)ccc23)c(F)cc1F` (stereo not drawn) [Example 294, 2-[2,4-Difluoro-5-(7-morpholin-4-yl-quinazolin-4-yl)-phenyl]-2-pyridin-3-ylacetamide], the IC50 in data set [1] (setting [4]) was 10 to 30 µM; in data set [3] (biochemical DNA-PK assay), 0.003 to 0.007 µM. In addition, the inhibitory constant (Ki) in data set [2] (setting [5]) is over 25 µM.
